Values joined by “and” are separate entries in the source; they are usually repeats but may differ in a detail not shown here. Identical values can stand only once. Toxic doses and inconclusive results are not listed. Rule as the data show it: active = T/C of 150% or more; inactive = T/C below 125%.
System: L1210 leukemia ip in BDF1 mice, survival T/C
Assay: NCI In Vivo Anticancer Drug Screen. Data for tumor model L1210 Leukemia (intraperitoneal) in B6D2F1 (BDF1) mice
Details: endpoint: mean survival time, higher = longer survival
Summary of the method: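 Mice bearing the transplanted tumor received compound or vehicle. Survival of the treated group was divided by that of the vehicle-treated control group to give the ratio.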

[1] = dose: 100.0 mg/kg/injection, schedule: Q01DX001 (ip), vehicle: carboxymethylcellulose (CMC)
[2] = dose: 200.0 mg/kg/injection, schedule: Q01DX001 (ip), vehicle: carboxymethylcellulose (CMC)
[3] = dose: 400.0 mg/kg/injection, schedule: Q01DX001 (ip), vehicle: carboxymethylcellulose (CMC)
[4] = dose: 100.0 mg/kg/injection, schedule: Q01DX001 (ip), vehicle: other
[5] = dose: 200.0 mg/kg/injection, schedule: Q01DX001 (ip), vehicle: other
[6] = dose: 100.0 mg/kg/injection, schedule: Q04DX002 (ip), vehicle: Klucel (hydroxypropylcellulose) (HPC)
[7] = dose: 200.0 mg/kg/injection, schedule: Q04DX002 (ip), vehicle: Klucel (hydroxypropylcellulose) (HPC)
[8] = dose: 100.0 mg/kg/injection, schedule: Q01DX009 (ip), vehicle: saline with Tween-80
[9] = dose: 200.0 mg/kg/injection, schedule: Q01DX009 (ip), vehicle: saline with Tween-80

Measured: T/C

CC(C)=CCC1=C(O)c2ccccc2C(=O)C1=O
inactive: dose: 0.5 mg/kg/injection, schedule: Q01DX Z (ip), vehicle: water 91 % of control | dose: 2.0 mg/kg/injection, schedule: Q01DX Z (ip), vehicle: water 94 % of control | dose: 8.0 mg/kg/injection, schedule: Q01DX Z (ip), vehicle: water 91 % of control | dose: 11.0 mg/kg/injection, schedule: Q01DX009 (ip), vehicle: carboxymethylcellulose (CMC) 107 % of control | dose: 11.0 mg/kg/injection, schedule: Q01DX009 (ip), vehicle: other 95 % of control and 102 % of control | dose: 15.0 mg/kg/injection, schedule: Q01DX Z (ip), vehicle: water 88 % of control | dose: 16.67 mg/kg/injection, schedule: Q#B X027 (ip), vehicle: water 111 % of control | dose: 16.67 mg/kg/injection, schedule: Q#B X027 (sc), vehicle: water 97 % of control | dose: 17.0 mg/kg/injection, schedule: Q01DX009 (ip), vehicle: carboxymethylcellulose (CMC) 98 % of control | dose: 17.0 mg/kg/injection, schedule: Q01DX009 (ip), vehicle: other 94 % of control and 103 % of control | dose: 20.0 mg/kg/injection, schedule: Q01DX Z (ip), vehicle: water 96 % of control | dose: 25.0 mg/kg/injection, schedule: Q01DX009 (ip), vehicle: carboxymethylcellulose (CMC) 103 % of control | dose: 25.0 mg/kg/injection, schedule: Q01DX009 (ip), vehicle: other 95 % of control and 97 % of control | dose: 25.0 mg/kg/injection, schedule: Q#A X Z (ip), vehicle: water 90 % of control | dose: 30.0 mg/kg/injection, schedule: Q01DX Z (ip), vehicle: water 88 % of control | dose: 33.33 mg/kg/injection, schedule: Q#B X027 (oral), vehicle: water 100 % of control | dose: 33.33 mg/kg/injection, schedule: Q#B X027 (sc), vehicle: water 100 % of control | dose: 37.5 mg/kg/injection, schedule: Q01DX009 (ip), vehicle: carboxymethylcellulose (CMC) 98 % of control | dose: 37.5 mg/kg/injection, schedule: Q01DX009 (ip), vehicle: other 100 % of control and 102 % of control | dose: 40.0 mg/kg/injection, schedule: Q01DX Z (ip), vehicle: water 96 % of control | dose: 50.0 mg/kg/injection, schedule: Q01DX015 (ip), vehicle: water 95 % of control | dose: 50.0 mg/kg/injection, schedule: Q#A X Z (ip), vehicle: water 97 % of control | dose: 56.0 mg/kg/injection, schedule: Q01DX009 (ip), vehicle: carboxymethylcellulose (CMC) 102 % of control | dose: 60.0 mg/kg/injection, schedule: Q01DX Z (ip), vehicle: water 94 % of control | dose: 66.67 mg/kg/injection, schedule: Q#B X027 (ip), vehicle: water 120 % of control | dose: 66.67 mg/kg/injection, schedule: Q#B X027 (oral), vehicle: water 97 % of control | dose: 66.67 mg/kg/injection, schedule: Q#B X027 (sc), vehicle: water 100 % of control | dose: 84.0 mg/kg/injection, schedule: Q01DX009 (ip), vehicle: other 102 % of control and 104 % of control | dose: 90.0 mg/kg/injection, schedule: Q01DX Z (ip), vehicle: water 92 % of control | dose: 100.0 mg/kg/injection, schedule: Q01DX Z (oral), vehicle: water 91 % of control | dose: 100.0 mg/kg/injection, schedule: Q#A X Z (ip), vehicle: water 95 % of control | dose: 125.0 mg/kg/injection, schedule: Q#A X018 (oral), vehicle: other 102 % of control | dose: 126.0 mg/kg/injection, schedule: Q01DX009 (ip), vehicle: other 101 % of control and 104 % of control | dose: 133.33 mg/kg/injection, schedule: Q#B X027 (oral), vehicle: water 102 % of control | dose: 135.0 mg/kg/injection, schedule: Q01DX Z (ip), vehicle: water 94 % of control | dose: 189.0 mg/kg/injection, schedule: Q01DX009 (ip), vehicle: other 109 % of control and 122 % of control | dose: 200.0 mg/kg/injection, schedule: Q01DX001 (oral), vehicle: other 114 % of control | dose: 200.0 mg/kg/injection, schedule: Q01DX Z (ip), vehicle: water 102 % of control | dose: 200.0 mg/kg/injection, schedule: Q01DX Z (oral), vehicle: water 96 % of control | dose: 250.0 mg/kg/injection, schedule: Q#A X018 (oral), vehicle: other 97 % of control | dose: 300.0 mg/kg/injection, schedule: Q01DX Z (oral), vehicle: water 98 % of control | dose: 400.0 mg/kg/injection, schedule: Q01DX001 (oral), vehicle: other 100 % of control | dose: 600.0 mg/kg/injection, schedule: Q01DX001 (oral), vehicle: other 98 % of control | dose: 900.0 mg/kg/injection, schedule: Q01DX001 (oral), vehicle: other 96 % of control

O=C(/C(=N/O)c1ccc(Cl)cc1)c1ccccc1
inactive: dose: 50.0 mg/kg/injection, schedule: Q01DX009 (ip), vehicle: Klucel (hydroxypropylcellulose) (HPC) 89 % of control | dose: 75.0 mg/kg/injection, schedule: Q01DX001 (ip), vehicle: Klucel (hydroxypropylcellulose) (HPC) 89 % of control | dose: 100.0 mg/kg/injection, schedule: Q01DX009 (ip), vehicle: Klucel (hydroxypropylcellulose) (HPC) 96 % of control | dose: 150.0 mg/kg/injection, schedule: Q01DX001 (ip), vehicle: Klucel (hydroxypropylcellulose) (HPC) 100 % of control | dose: 200.0 mg/kg/injection, schedule: Q01DX009 (ip), vehicle: Klucel (hydroxypropylcellulose) (HPC) 107 % of control | dose: 300.0 mg/kg/injection, schedule: Q01DX001 (ip), vehicle: Klucel (hydroxypropylcellulose) (HPC) 98 % of control

Cc1sc(-c2ccccc2)nc1-c1ccc(N=Cc2ccc(N(CCCl)CCCl)cc2)cc1
inactive: [1] 101 % of control | [2] 101 % of control | [3] 106 % of control

Nc1[nH]c(=S)nc2c1ncn2C1CCCC1
inactive: [4] 93 % of control | [5] 93 % of control

Cc1ccc(C(=O)n2c(Cl)c(C=O)c3ccccc32)cc1
inactive: dose: 50.0 mg/kg/injection, schedule: Q04DX002 (ip), vehicle: Klucel (hydroxypropylcellulose) (HPC) 94 % of control | [6] 97 % of control | [7] 94 % of control

CC1Nc2ccccc2-c2ccccc2C1=O (centres undefined)
inactive: [1] 107 % of control | [2] 102 % of control | [3] 102 % of control

O=N[C@H]1C2CC([C@@H]1Cl)[C@@H]1CC=C[C@H]21 (some centres undefined)
inactive: dose: 50.0 mg/kg/injection, schedule: Q01DX001 (ip), vehicle: carboxymethylcellulose (CMC) 95 % of control | [1] 101 % of control | [2] 95 % of control

Nc1ncnc(N)c1NC(=O)c1cc(Br)c(OCc2ccccc2)c(Br)c1
inactive: dose: 100.0 mg/kg/injection, schedule: Q01DX001 (ip), vehicle: DMSO 95 % of control | dose: 200.0 mg/kg/injection, schedule: Q01DX001 (ip), vehicle: DMSO 95 % of control | dose: 400.0 mg/kg/injection, schedule: Q01DX001 (ip), vehicle: DMSO 95 % of control

N#CCCP(=S)(c1ccccc1)c1ccccc1
inactive: [4] 104 % of control | dose: 100.0 mg/kg/injection, schedule: Q04DX003 (ip), vehicle: other 102 % of control | [5] 98 % of control | dose: 200.0 mg/kg/injection, schedule: Q04DX003 (ip), vehicle: other 96 % of control | dose: 400.0 mg/kg/injection, schedule: Q01DX001 (ip), vehicle: other 102 % of control | dose: 400.0 mg/kg/injection, schedule: Q04DX003 (ip), vehicle: other 90 % of control

O=C(SCCNC(=O)N1CCCCC1)Sc1ccccc1
inactive: dose: 100.0 mg/kg/injection, schedule: Q04DX003 (ip), vehicle: saline with Tween-80 105 % of control | dose: 200.0 mg/kg/injection, schedule: Q04DX003 (ip), vehicle: saline with Tween-80 101 % of control | dose: 400.0 mg/kg/injection, schedule: Q04DX003 (ip), vehicle: saline with Tween-80 114 % of control

O=c1[nH]cnc2c1ncn2Cc1cccc2ccccc12
inactive: [6] 94 % of control | [7] 94 % of control | dose: 400.0 mg/kg/injection, schedule: Q04DX002 (ip), vehicle: Klucel (hydroxypropylcellulose) (HPC) 94 % of control

CSCCC(NC(=O)c1ccccc1)C(N)=O (centres undefined)
inactive: [8] 90 % of control | [9] 89 % of control

CN(C)c1ccc(Cc2ccc(N(C)C)cc2)cc1
inactive: [8] 96 % of control | [9] 94 % of control | dose: 400.0 mg/kg/injection, schedule: Q01DX009 (ip), vehicle: saline with Tween-80 86 % of control

From PubChem BioAssay AID248 (DTP/NCI, 2004)
